# From ChEMBL document CHEMBL1201862, “PubChem BioAssay data set” (2004)
# Calls of active or inactive are those of the source.
# How the values were obtained:
# [1] = target: Induced myeloid leukemia cell differentiation protein Mcl-1 (Homo sapiens, UniProt Q07820); format: functional
# Estrogen receptor beta = Estrogen receptor beta (Homo sapiens, UniProt Q92731); assay: ERβ–SRC-3 coactivator interaction inhibitors, confirmation, orthogonal assay, biochemical, ELISA, streptavidin-HRP readout (AID 1060)
# Estrogen receptor beta, sequence (Q92731 whole entry): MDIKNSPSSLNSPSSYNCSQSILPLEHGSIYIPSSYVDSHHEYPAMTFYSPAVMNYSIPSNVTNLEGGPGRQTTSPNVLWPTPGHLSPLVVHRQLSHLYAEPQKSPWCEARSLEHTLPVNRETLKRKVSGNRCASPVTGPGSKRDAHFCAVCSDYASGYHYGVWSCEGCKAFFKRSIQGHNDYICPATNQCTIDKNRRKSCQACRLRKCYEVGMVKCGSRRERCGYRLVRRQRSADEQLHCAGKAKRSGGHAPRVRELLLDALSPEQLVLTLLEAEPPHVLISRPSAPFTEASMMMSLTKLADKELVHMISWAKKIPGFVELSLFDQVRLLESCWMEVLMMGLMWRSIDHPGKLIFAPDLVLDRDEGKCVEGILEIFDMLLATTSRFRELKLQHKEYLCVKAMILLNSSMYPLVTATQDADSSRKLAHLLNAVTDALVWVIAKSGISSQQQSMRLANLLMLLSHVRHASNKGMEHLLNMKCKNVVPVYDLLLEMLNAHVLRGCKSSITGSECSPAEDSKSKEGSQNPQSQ
# Bcl-2-like protein 10 = Bcl-2-like protein 10 (Homo sapiens, UniProt Q9HD36); assay: displacers of TR3 peptide from Bcl-B, primary screen, selectivity assay for Bfl-1 inhibitor project, biochemical, fluorescence polarization, FITC-TR3 peptide (AID 748);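 further: fluorescence polarization from a fluorescein-labelled TR3 peptide binding purified Bcl-B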
# Bcl-2-like protein 10, sequence (Q9HD36 whole entry): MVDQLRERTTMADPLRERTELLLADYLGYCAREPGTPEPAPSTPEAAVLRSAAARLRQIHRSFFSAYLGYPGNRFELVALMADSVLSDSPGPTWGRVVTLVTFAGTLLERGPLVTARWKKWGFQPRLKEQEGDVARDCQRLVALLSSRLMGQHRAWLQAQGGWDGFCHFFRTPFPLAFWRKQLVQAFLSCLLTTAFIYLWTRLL
# [2] = target: T1, Tyrosine-protein phosphatase non-receptor type 7 (Homo sapiens, UniProt P35236); assay: redox-dependent HePTP inhibition, mechanism study, biochemical, fluorescence (AID 2068); format: functional
# T1 sequence (P35236 whole entry): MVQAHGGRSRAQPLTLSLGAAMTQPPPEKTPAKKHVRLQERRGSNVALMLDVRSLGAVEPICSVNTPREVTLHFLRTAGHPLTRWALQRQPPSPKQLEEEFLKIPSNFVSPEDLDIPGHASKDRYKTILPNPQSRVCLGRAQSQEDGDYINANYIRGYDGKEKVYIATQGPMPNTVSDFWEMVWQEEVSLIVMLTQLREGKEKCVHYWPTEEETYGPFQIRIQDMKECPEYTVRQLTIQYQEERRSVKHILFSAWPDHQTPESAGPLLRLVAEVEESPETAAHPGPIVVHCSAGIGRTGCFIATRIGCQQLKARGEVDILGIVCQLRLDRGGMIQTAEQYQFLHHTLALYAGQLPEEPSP
# [3] = target: T2, Neuropeptide Y receptor type 2 (Homo sapiens, UniProt P49146); assay: Fluorescence-based cell-based high-throughput dose response assay for agonists of NPY-Y2. [Related pubchem assays: 1703 (Screening assay (CNGC inhibitors).), 1359 (Screening assay (NPY-Y2 potentiators or agonists).), 1304 (Screening assay (NPY-Y1 potentiators or agonists).), 1710 (Screening assay (NPY-Y2 agonists).), 1791 (Summary AID.)]; format: functional
# T2 sequence (P49146 whole entry): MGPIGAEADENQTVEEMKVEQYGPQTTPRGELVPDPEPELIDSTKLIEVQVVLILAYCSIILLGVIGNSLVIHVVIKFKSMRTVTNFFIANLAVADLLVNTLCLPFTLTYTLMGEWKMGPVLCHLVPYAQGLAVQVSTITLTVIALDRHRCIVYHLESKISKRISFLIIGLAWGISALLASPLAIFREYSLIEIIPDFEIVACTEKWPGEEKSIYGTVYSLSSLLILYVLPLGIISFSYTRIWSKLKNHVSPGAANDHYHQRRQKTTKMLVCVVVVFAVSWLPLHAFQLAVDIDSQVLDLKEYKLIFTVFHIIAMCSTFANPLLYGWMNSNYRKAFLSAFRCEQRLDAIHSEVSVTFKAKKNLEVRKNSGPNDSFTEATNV
# [4] = target: T3, Neuropeptide Y receptor type 1 (Homo sapiens, UniProt P25929); assay: Fluorescence-based counterscreen for agonists of NPY-Y2: cell-based high-throughput dose response assay for agonists of NPY-Y1.; format: functional
# T3 sequence (P25929 whole entry): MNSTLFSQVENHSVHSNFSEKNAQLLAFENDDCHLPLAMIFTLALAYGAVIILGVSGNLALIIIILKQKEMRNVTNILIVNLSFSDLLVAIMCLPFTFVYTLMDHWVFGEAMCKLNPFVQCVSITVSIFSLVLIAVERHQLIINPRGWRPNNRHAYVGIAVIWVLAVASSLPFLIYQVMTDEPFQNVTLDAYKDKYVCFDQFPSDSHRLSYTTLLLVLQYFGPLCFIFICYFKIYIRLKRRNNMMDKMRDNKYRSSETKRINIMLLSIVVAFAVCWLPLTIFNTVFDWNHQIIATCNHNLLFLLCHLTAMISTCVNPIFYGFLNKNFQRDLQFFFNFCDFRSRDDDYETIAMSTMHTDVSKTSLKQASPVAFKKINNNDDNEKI
# HEK293 = assay: Fluorescence-based counterscreen for potentiators or agonists of NPY-Y2: cell-based high-throughput dose response assay to identify inhibitors of cyclic nucleotide gated ion channel (CNGC) activity. In this assay, the parental HEK293 cell line transfected with a cyclic-nucleotide gated ion channel (CNGC)-based cAMP sensor is used to measure inhibition of isoproterenol-induced CNGC activity by test compound.; format: functional; conditions: Homo sapiens;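 further: stimulus is 1 µM isoproterenol at EC100 plus PDE inhibitor Ro 20-1724 at 25 µM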
# [5] = target: T4, Melanin-concentrating hormone receptor 1 (Homo sapiens, UniProt Q99705); assay: Late-stage fluorescence-based counterscreen for antagonists of the G-protein coupled receptor 7 (GPR7): cell-based dose response assay to identify antagonists of the melanin-concentrating hormone receptor 1 (MCHR1). [Related pubchem assays (depositor defined):AID1861, AID1880, AID1952, AID2148, AID2251, AID2257, AID485339]; format: functional
# T4 sequence (Q99705 whole entry): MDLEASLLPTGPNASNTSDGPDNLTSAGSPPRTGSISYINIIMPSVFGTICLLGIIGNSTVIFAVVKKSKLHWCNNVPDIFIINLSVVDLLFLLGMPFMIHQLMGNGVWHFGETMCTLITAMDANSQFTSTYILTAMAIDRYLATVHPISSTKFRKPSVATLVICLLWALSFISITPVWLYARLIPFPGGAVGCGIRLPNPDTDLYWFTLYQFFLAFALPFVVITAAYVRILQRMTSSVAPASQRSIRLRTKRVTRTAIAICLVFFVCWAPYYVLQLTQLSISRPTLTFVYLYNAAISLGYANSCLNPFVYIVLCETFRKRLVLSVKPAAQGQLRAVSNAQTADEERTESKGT
# [6] = target: T5, Neuropeptides B/W receptor type 1 (Homo sapiens, UniProt P48145); assay: Fluorescence-based dose response cell-based high throughput screening assay to identify antagonists of the G-protein coupled receptor 7 (GPR7). [Related pubchem assays: 1952 (Screening assay (GPR7 antagonists).), 1880 (Summary AID.)]; format: functional
# T5 sequence (P48145 whole entry): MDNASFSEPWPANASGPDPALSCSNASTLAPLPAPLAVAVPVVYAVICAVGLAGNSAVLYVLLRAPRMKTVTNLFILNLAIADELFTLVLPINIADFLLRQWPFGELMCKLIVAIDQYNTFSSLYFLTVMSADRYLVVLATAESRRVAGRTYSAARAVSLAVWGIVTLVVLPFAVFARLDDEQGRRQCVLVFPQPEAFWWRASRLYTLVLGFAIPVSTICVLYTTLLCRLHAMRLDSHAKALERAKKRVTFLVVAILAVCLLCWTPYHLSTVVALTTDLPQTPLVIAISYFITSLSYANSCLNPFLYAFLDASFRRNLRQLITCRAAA
# [7] = target: T4, Melanin-concentrating hormone receptor 1; assay: Fluorescence-based counterscreen for antagonists of the G-protein coupled receptor 7 (GPR7): cell-based high throughput dose response assay to identify antagonists of the melanin-concentrating hormone receptor 1 (MCHR1).; format: functional
# Estrogen receptor = target: T6, Estrogen receptor (Homo sapiens, UniProt P03372); assay: ERα–SRC-3 coactivator interaction inhibitors, confirmation, orthogonal assay, biochemical, ELISA, streptavidin-HRP readout (AID 1079)
# T6 sequence (P03372 whole entry): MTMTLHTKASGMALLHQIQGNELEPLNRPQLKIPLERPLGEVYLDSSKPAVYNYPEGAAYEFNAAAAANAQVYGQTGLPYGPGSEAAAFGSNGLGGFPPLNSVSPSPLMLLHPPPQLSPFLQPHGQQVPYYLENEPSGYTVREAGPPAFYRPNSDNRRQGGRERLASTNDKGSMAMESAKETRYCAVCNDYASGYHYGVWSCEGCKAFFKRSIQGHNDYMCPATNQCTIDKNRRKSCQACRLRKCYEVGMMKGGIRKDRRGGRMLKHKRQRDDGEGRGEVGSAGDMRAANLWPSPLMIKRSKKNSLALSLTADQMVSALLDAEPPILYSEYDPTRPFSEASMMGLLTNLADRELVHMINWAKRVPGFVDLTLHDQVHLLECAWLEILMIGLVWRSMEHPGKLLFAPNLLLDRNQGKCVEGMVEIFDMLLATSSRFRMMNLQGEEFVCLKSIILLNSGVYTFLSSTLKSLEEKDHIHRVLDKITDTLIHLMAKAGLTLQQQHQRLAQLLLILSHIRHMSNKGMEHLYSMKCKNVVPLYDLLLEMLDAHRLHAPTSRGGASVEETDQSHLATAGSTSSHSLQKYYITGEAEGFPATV
# Cytochrome P450 2D6 = Cytochrome P450 2D6 (Homo sapiens, UniProt P10635); assay: qHTS Assay for Inhibitors and Substrates of Cytochrome P450 2D6. [Related pubchem assays: 410 ]; format: ADME; conditions: read-out: Potency
# Cytochrome P450 2D6, sequence (P10635 whole entry): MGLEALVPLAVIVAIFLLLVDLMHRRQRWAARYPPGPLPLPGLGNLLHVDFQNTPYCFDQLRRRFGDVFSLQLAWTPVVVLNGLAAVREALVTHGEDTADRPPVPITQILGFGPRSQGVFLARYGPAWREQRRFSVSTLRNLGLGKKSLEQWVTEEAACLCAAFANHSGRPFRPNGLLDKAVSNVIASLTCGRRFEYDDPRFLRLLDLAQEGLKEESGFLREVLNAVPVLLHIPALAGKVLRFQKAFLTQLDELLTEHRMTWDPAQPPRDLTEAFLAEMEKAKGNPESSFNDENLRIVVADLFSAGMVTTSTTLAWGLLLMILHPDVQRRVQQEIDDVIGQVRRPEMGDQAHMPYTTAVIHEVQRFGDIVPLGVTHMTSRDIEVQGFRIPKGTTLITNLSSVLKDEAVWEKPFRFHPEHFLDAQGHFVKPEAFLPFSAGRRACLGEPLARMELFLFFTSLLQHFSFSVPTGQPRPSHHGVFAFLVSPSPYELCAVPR
# [8] = Luminescence Cell-Based Dose Confirmation HTS to Identify Activators of 5'UTR Stem-Loop Driven Alpha-Synuclein mRNA Translation in H4 Neuroglioblastoma Cells. [Related pubchem assays: 1829 (Project Summary), 1814 (Primary HTS)]; format: functional
# [9] = Luminescence Cell-Based Dose Response HTS to Identify Activators of Luciferase Translation or Activity in H4 […] Cells. [Related pubchem assays: 1829 (Project Summary), 1814 (Primary HTS)]; format: functional
# H4 = assay: Luminescence Cell-Based Dose Response HTS to Identify Activators of 5'UTR Stem-Loop Driven Prion Protein mRNA Translation in H4 Neuroglioblastoma Cells. [Related pubchem assays: 1829 (Project Summary), 1814 (Primary HTS)]; format: functional; conditions: Homo sapiens
# [10] = target: Lysosomal acid glucosylceramidase (Homo sapiens, UniProt P04062); assay: Dose response cell-based high throughput screening assay to identify enhancers of beta-glucosidase activity. [Related pubchem assays: 784 ]; format: functional
# Lysosomal acid glucosylceramidase, sequence (P04062 whole entry): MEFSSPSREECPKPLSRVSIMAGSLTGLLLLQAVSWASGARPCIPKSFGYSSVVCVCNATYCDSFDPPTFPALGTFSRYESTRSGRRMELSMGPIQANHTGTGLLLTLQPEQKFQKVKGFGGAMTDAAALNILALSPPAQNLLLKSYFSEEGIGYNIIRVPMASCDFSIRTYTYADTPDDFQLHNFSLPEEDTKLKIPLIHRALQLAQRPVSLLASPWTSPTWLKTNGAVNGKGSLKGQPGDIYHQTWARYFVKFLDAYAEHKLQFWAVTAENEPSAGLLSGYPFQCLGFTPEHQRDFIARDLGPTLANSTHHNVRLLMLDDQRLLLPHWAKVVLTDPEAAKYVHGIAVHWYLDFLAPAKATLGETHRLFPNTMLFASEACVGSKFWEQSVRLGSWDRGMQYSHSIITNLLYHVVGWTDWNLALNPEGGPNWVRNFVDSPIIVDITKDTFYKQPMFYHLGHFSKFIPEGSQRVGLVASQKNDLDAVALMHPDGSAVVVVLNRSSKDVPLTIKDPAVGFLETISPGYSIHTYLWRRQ
# Induced myeloid leukemia cell differentiation protein Mcl-1, sequence (Q07820 whole entry): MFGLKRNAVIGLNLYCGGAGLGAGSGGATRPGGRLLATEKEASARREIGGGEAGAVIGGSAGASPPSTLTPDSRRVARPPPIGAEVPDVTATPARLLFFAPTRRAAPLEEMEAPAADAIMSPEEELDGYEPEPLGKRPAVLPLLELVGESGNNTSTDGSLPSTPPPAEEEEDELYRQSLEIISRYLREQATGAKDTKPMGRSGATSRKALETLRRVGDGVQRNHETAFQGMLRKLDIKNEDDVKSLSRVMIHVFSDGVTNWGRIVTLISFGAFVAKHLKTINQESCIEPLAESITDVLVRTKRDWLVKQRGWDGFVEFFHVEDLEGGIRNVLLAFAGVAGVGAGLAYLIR
compound,measurement,setting,value
O=C(NCc1ccccn1)c1ccc2nc(-c3ccco3)c(-c3ccco3)nc2c1,IC50,[1],2.28 µM (active)
same,IC50,Estrogen receptor beta,4.9 µM (not active)
same,IC50,Bcl-2-like protein 10,9.92 µM (active)
same,IC50,[2],3.99 µM (active)
COc1ccc(-n2nnnc2SCC(=O)NCCc2ccccc2)cc1OC,EC50,[3],> 35.4 µM (not active)
same,EC50,[4],> 35.4 µM (not active)
same,EC50,HEK293,> 35.4 µM (not active)
COc1ccc(Oc2c(Cl)cnn(-c3ccc(C)cc3)c2=O)cc1,IC50,[5],17 µM (inactive)
same,IC50,[6],2.94 µM (active)
same,IC50,[7],23.6 µM (not active)
O=C(CCCCCn1c(=S)[nH]c2ccccc2c1=O)N1CCN(c2cccc([N+](=O)[O-])c2)CC1,IC50,Estrogen receptor,0.84 µM (not active)
COc1ccc2c(c1O)-c1c(OC)c(OC)cc3c1[C@@H](C2)N(C)CC3,AC50,Cytochrome P450 2D6,15.8 µM (inconclusive)
COC(=O)c1sc(NC(=O)c2csc3c2CCCC3)nc1C,EC50,[8],0.155 µM (active)
same,EC50,[9],0.575 µM (active)
same,EC50,H4,1.8 µM (active)
same,EC50,[10],> 50 µM (not active)
